The text below walks through data of patent US20220127281A1, “HETEROARYL COMPOUNDS THAT INHIBIT G12C MUTANT RAS PROTEINS” (AstraZeneca AB, priority 2017, published 2022).

Assay [1] has as its target T1, GDP loaded biotinylated KRas^G12C protein (Homo sapiens, UniProt P01116, G12C).
T1 construct: biotin (biotinylated); made in house
Nature of the assay: KRasG12C functional assay. The class given is biochemical. The note with it: HTRF FRET readout of SOS-mediated nucleotide exchange and GST-Raf RBD binding; samples incubated for 4 hrs; read-out: KRasG12C functional assay IC50 value. Put shortly:
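Biotinylated GDP-loaded KRasG12C exchange driven by 0.08 μM SOS with 0.6 μM GTPγS, read by HTRF between europium and XL665 as active KRas binds 20 nM GST-Raf RBD. Buffer: 20 mM HEPES pH 7.5, 5 mM MgCl2, 150 mM NaCl, 0.01% Tween 20. IC50 from normalised FRET dose-response fits.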

The target of assay [2] is T1, GDP loaded biotinylated KRas^G12C protein. Put plainly: KRasG12C mass spectrometry adducting assay. The class given is binding. The following applies: test compound final concentration 10 μM, 4 μM KRasG12C, react for 4 hours. Put shortly:
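GDP-loaded biotinylated KRasG12C incubated with compound in 20 mM HEPES pH 7.5, 5 mM MgCl2, 150 mM NaCl, then analysed by LC–QTOF MS.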

T1 sequence (P01116 1-188 isoform P01116-2 G12C): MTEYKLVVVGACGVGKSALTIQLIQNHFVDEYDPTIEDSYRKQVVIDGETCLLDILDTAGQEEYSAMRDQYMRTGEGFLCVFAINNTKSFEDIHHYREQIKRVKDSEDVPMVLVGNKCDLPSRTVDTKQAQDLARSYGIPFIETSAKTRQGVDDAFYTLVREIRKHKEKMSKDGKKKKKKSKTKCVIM

Usually IC50 stands for the concentration that gives 50% inhibition. Regarding `C=CC(=O)N1CCN2c3ncnc4cc(-c5cccc(F)c5F)c(Cl)c(c34)OC[C@@H]2C1` [Example 62, 1-[(8aS)-6-Chloro-5-(2,3-difluorophenyl)-8a,9,11,12-tetrahydropyrazino[2′,1′:3,4][1,4]oxazepino[5,6,7-de]quinazolin-10(8H)-yl]prop-2-en-1-one], in assay [1], the IC50 came to 355 nM. Further, in assay [2], the “KRasG12C M.S. Binding Mean adduct %” value worked out at 100%.
Turning to `C=CC(=O)N1CCN2c3ncnc4cc(-c5ccccc5O)c(Cl)c(c34)OC[C@@H]2C1` [Example 63, 1-[(8aS)-6-Chloro-5-(2-hydroxyphenyl)-8a,9,11,12-tetrahydropyrazino[2′,1′:3,4][1,4]oxazepino[5,6,7-de]quinazolin-10(8H)-yl]prop-2-en-1-one], the IC50 in assay [1] came out at 896 nM. Further, the “KRasG12C M.S. Binding Mean adduct %” value in assay [2] was found to be 87%.
In the case of `C=CC(=O)N1CCN2c3ncnc4cc(-c5ccc(F)cc5C)c(Cl)c(c34)OC[C@@H]2C1` [Example 64, 1-[(8aS)-6-Chloro-5-(4-fluoro-2-methylphenyl)-8a,9,11,12-tetrahydropyrazino[2′,1′:3,4][1,4]oxazepino[5,6,7-de]quinazolin-10(8H)-yl]prop-2-en-1-one], the IC50 in assay [1] was 1570 nM. Also, the “KRasG12C M.S. Binding Mean adduct %” value in assay [2] stood at 75%.
The matching figures for `C=CC(=O)N1CCN2c3ncnc4cc(-c5ccccc5CO)c(Cl)c(c34)OC[C@@H]2C1` [Example 65, 1-[(8aS)-6-Chloro-5-[2-(hydroxymethyl)phenyl]-8a,9,11,12-tetrahydropyrazino[2′,1′:3,4][1,4]oxazepino[5,6,7-de]quinazolin-10(8H)-yl]prop-2-en-1-one]: 3460 nM and 49%.
As to `C=CC(=O)N1CCN2c3ncnc4cc(-c5ccc(F)cc5F)c(Cl)c(c34)OC[C@@H]2C1` [Example 66, 1-[(8aS)-6-Chloro-5-(2,4-difluorophenyl)-8a,9,11,12-tetrahydropyrazino[2′,1′:3,4][1,4]oxazepino[5,6,7-de]quinazolin-10(8H)-yl]prop-2-en-1-one], the concentration for half-maximal inhibition (IC50) in assay [1] worked out at 1450 nM. Also, the “KRasG12C M.S. Binding Mean adduct %” value in assay [2] stood at 84%.
On to `C=CC(=O)N1CCN2c3ncnc4cc(-c5cnccc5C#N)c(Cl)c(c34)OC[C@@H]2C1` [Example 67, 3-[(8aS)-10-Acryloyl-6-chloro-8,8a,9,10,11,12-hexahydropyrazino[2′,1′:3,4][1,4]oxazepino[5,6,7-de]quinazolin-5-yl]pyridine-4-carbonitrile], for which the IC50 in assay [1] is 6530 nM. For the same compound, the “KRasG12C M.S. Binding Mean adduct %” value in assay [2] came out at 17%.
For `C=CC(=O)N1CCN2c3ncnc4cc(-c5ccccc5C#N)c(Cl)c(c34)OC[C@@H]2C1` [Example 68, 2-[(8aS)-10-Acryloyl-6-chloro-8,8a,9,10,11,12-hexahydropyrazino[2′,1′:3,4][1,4]oxazepino[5,6,7-de]quinazolin-5-yl]benzonitrile], in assay [1], the half-inhibitory concentration (IC50) is 1470 nM. In assay [2], the “KRasG12C M.S. Binding Mean adduct %” value is 62%.
In the case of `C=CC(=O)N1CCN2c3nc(N4CCOCC4)nc4cc(-c5c(C)ccc6[nH]ncc56)c(Cl)c(c34)OC[C@@H]2C1` [Example 70, 1-[(8aS)-6-chloro-5-(5-methyl-1H-indazol-4-yl)-2-(morpholin-4-yl)-8a,9,11,12-tetrahydropyrazino[2′,1′:3,4][1,4]oxazepino[5,6,7-de]quinazolin-10 (8H)-yl]prop-2-en-1-one], in assay [1], the IC50 is 445 nM. Moreover, the “KRasG12C M.S. Binding Mean adduct %” value in assay [2] was determined as 67%.
Consider `C=CC(=O)N1CCN2c3nc(N4CC(N(C)C)C4)nc4cc(-c5c(C)ccc6[nH]ncc56)c(Cl)c(c34)OC[C@@H]2C1` [Example 75, 1-((8aS)-6-chloro-2-(3-(dimethylamino)azetidin-1-yl)-5-(5-methyl-1H-indazol-4-yl)-8a,9,11,12-tetrahydropyrazino[2′,1′:3,4][1,4]oxazepino[5,6,7-de]quinazolin-10 (8H)-yl)prop-2-en-1-one], for which the IC50 in assay [1] turned out to be 19 nM. The “KRasG12C M.S. Binding Mean adduct %” value in assay [2] is given as 57%.
The corresponding values for `C=CC(=O)N1CCN2c3nc(NCCN(C)C)nc4cc(-c5c(C)ccc6[nH]ncc56)c(Cl)c(c34)OC[C@@H]2C1` [Example 78, 1-((8aS)-6-Chloro-2-((2-(dimethylamino)ethyl)amino)-5-(5-methyl-1H-indazol-4-yl)-8a,9,11,12-tetrahydropyrazino[2′,1′:3,4][1,4]oxazepino[5,6,7-de]quinazolin-10 (8H)-yl)prop-2-en-1-one] are 37 nM and 81%.
